The target in the assay is T1, WT PfMDH (Plasmodium falciparum, UniProt Q6VVP7).
T1 construct: The full-length WT PfMDH gene was cloned into pETM-13; made in house; host or cells: E. coli Rosetta 2 (DE3) pLysS
Kind of assay: Activity screening of 4DT / 4-phenylthiazol-2-amine derivatives (oxidation of malate, absorbance at 340 nm). Format: biochemical. Conditions: for inhibition at 500 µM: Dunnett's multiple comparisons test, read-out: Mean Diff. (positive control vs. compound); for Slope repl1 / Slope repl2: linear regression slope of absorbance 340 nm vs time; for Slope normalized repl1: slope relative to control = 1, replicate 1; for Slope normalized repl2: slope relative to control = 1, replicate 2. The method, then:
The oxidation of malate to oxaloacetate was assayed spectrophotometrically in flat-bottomed Corning 96-well microplates in a total volume of 250.0 µl in 50 mM glycine buffer pH 10.2[24] with an additional 400 mM NaCl for protein stability. The increase of absorbance at 340 nm was recorded in kinetic mode using a Tecan Spark multimode microplate reader at 298 K. A mastermix of 50 mM NAD+ and 44 μM PfMDH was used for both the screening and kinetics experiments. The final concentration of protein and cofactor were […], respectively. Positive control groups were set (absence of compound) in the same plate as the treated group. The absorbance from the background noise was subtracted from the data and then a linear regression model was employed in order to get the line slope from the first 5 min of the reaction. The percentage of enzymatic activity has been calculated as described by Eq. (1)1 enzymeactivity(%)=slopetreated/slopepositivecontrol*100
1.3 µL of derivatives of 4-phenylthiazol-2-amine in 100% DMSO were mixed with 237.7 µL of a mastermix of WT PfMDH previously incubated with NAD+. The final compound concentration used in this screening was 500 µM in the presence of 0.5% (v/v) DMSO. The microplate was sealed with silver foil for 1-h incubation at 25–35 °C. Finally, reactions in both the samples and control wells were started upon the addition of 13.0 µL of 5 mM malate). At the end of the experiments, the reaction of the plate was spectrophotometrically assayed at 600 nm in order to identify turbidity due to the low solubility of the compound. All measurements were performed in duplicate.

Setting [1] is: 500 µM compound, Dunnett test details, positive control mean 100, n 2, read-out: Mean 2 (mean % enzymatic activity of treated group).
The mark [2] stands for this setting: 500 µM compound, control 100%, replicate 1, read-out: % enzymatic activity repl1.
Where [3] appears, read: 500 µM compound, control 100%, replicate 2, read-out: % enzymatic activity repl2.

Read-outs that look alike come from different tables or passages of the source.

T1 sequence (Q6VVP7 entry or part of it): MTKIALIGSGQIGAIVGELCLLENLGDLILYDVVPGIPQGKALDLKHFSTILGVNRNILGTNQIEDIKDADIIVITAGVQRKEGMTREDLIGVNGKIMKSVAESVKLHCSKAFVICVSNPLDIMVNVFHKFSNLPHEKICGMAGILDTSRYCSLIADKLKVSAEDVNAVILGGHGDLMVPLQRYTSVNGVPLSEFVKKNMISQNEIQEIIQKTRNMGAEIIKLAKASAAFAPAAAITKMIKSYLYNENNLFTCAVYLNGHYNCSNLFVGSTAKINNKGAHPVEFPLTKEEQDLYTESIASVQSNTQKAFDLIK

As to `Nc1nc(-c2ccc(F)c(F)c2)cs1` [1a], the remaining activity at 500 µM under setting [1] is 62%, the remaining activity at 500 µM under setting [2] was found to be 64%, the remaining activity at 500 µM under setting [3] came out at 59% and the remaining activity at 500 µM (read-out: enzyme activity) came out at 62%. Moreover, the inhibition at 500 µM (500 µM compound) worked out at 38.5%. In addition, where the note is “500 µM compound, replicate 1”, the “Slope repl1” value was found to be 0.02136. The “Slope repl2” value (500 µM compound, replicate 2) was 0.02071. Also, the “Slope normalized repl1” value (500 µM compound) came to 0.6412. Where the note is “500 µM compound”, the “Slope normalized repl2” value amounted to 0.591.

Take `CC(C)(C)OC(=O)CNC(=O)c1cc(-c2cccs2)on1` [4b]: the remaining activity at 500 µM runs as follows: under setting [1], 21%; under setting [2], 22%; under setting [3], 19%; (read-out: enzyme activity) 20%. For the setting “500 µM compound”, the inhibition at 500 µM is 79.5%. Moreover, the “Slope repl1” value (500 µM compound, replicate 1) was 0.007266. In addition, under “500 µM compound, replicate 2”, the “Slope repl2” value is 0.006583. Moreover, the “Slope normalized repl1” value (500 µM compound) worked out at 0.2181. Besides, the “Slope normalized repl2” value (500 µM compound) was 0.1879.

In the case of `Cc1c(CO)cnn1-c1ccccc1` [compound 6b], the enzyme activity entry (500 µM compound, 0.5% DMSO, vs control, mean of n = 2) was “no statistical difference with the control”. The remaining activity at 500 µM under setting [1] came out at 80%. Further, for the setting “500 µM compound”, the inhibition at 500 µM was 20%, the “Slope normalized repl1” value amounted to 0.7992 and the “Slope normalized repl2” value was found to be 0.7957. Besides, the remaining activity at 500 µM under setting [2] is 80%. Moreover, the remaining activity at 500 µM under setting [3] turned out to be 80%. Moreover, the “Slope repl1” value (500 µM compound, replicate 1) is 0.02662. Moreover, the “Slope repl2” value (500 µM compound, replicate 2) turned out to be 0.02788.

For `Nc1nc(-c2ccc(F)cc2)cs1` [compound 9a], the remaining activity at 500 µM reads like this: under setting [1], 51%; under setting [2], 57%; under setting [3], 45%; (read-out: enzyme activity) 51%. For the same molecule, the inhibition at 500 µM (500 µM compound) is 49%. Besides, the “Slope repl1” value (500 µM compound, replicate 1) came out at 0.01901. The “Slope repl2” value (500 µM compound, replicate 2) was 0.01582. The “Slope normalized repl1” value (500 µM compound) is recorded as 0.5707. Besides, the “Slope normalized repl2” value (500 µM compound) is reported as 0.4515.

As to `O=C(O)c1cc(-c2cccs2)on1` [compound 1b], the remaining activity at 500 µM worked out at 60% under setting [1], 65% under setting [2], 54% under setting [3] and 60% (read-out: enzyme activity). The inhibition at 500 µM (500 µM compound) worked out at 40.5%. Besides, the “Slope repl1” value (500 µM compound, replicate 1) is given as 0.0217. Besides, under “500 µM compound, replicate 2”, the “Slope repl2” value is recorded as 0.019. Besides, the “Slope normalized repl1” value (500 µM compound) was determined as 0.6515. Besides, the “Slope normalized repl2” value (500 µM compound) is given as 0.5422.

On to `O=C(O)c1nc(-c2ccccc2)cs1` [4a], for which the remaining activity at 500 µM runs as follows: under setting [1], 65%; under setting [2], 64%; under setting [3], 66%; (read-out: enzyme activity) 65%. Where the note is “500 µM compound”, the inhibition at 500 µM was found to be 35%. In addition, the “Slope repl1” value (500 µM compound, replicate 1) came out at 0.02124. Besides, the “Slope repl2” value (500 µM compound, replicate 2) was 0.02324. Also, where the note is “500 µM compound”, the “Slope normalized repl1” value is 0.6376. Moreover, the “Slope normalized repl2” value (500 µM compound) amounted to 0.6632.

Consider `Nc1nc(-c2ccc(Cl)c(Cl)c2)cs1` [7a], for which the remaining activity at 500 µM was 24% under setting [1], 26% under setting [2], 21% under setting [3] and 23% (read-out: enzyme activity). Besides, the inhibition at 500 µM (500 µM compound) was determined as 76.5%. The “Slope repl1” value (500 µM compound, replicate 1) turned out to be 0.008711. Moreover, the “Slope repl2” value (500 µM compound, replicate 2) is recorded as 0.007289. Further, the “Slope normalized repl1” value (500 µM compound) is recorded as 0.2615. In addition, the “Slope normalized repl2” value (500 µM compound) amounted to 0.208.

Take `NCc1ccc(-c2csnn2)cc1` [2b]: the remaining activity at 500 µM under setting [1] came to 65%, the remaining activity at 500 µM under setting [2] is 83%, the remaining activity at 500 µM under setting [3] stood at 47% and the remaining activity at 500 µM (read-out: enzyme activity) worked out at 65%. Also, under “500 µM compound”, the inhibition at 500 µM came out at 35%. In addition, under “500 µM compound, replicate 1”, the “Slope repl1” value is listed as 0.02772. Moreover, the “Slope repl2” value (500 µM compound, replicate 2) is reported as 0.01654. In addition, under “500 µM compound”, the “Slope normalized repl1” value came out at 0.8322. Also, the “Slope normalized repl2” value (500 µM compound) is recorded as 0.472.

On to `Nc1cc(-c2ccccc2)[nH]n1` [5b], for which the remaining activity at 500 µM by setting is: under setting [1], 53%; under setting [2], 63%; under setting [3], 42%; (read-out: enzyme activity) 53%. In addition, the inhibition at 500 µM (500 µM compound) was determined as 47.5%. For the same molecule, the “Slope repl1” value (500 µM compound, replicate 1) worked out at 0.02092. The “Slope repl2” value (500 µM compound, replicate 2) was determined as 0.01483. Besides, the “Slope normalized repl1” value (500 µM compound) was 0.628. Besides, the “Slope normalized repl2” value (500 µM compound) is 0.4232.

Values taken from PMC8355244, “A fragment-based approach identifies an allosteric pocket that impacts malate dehydrogenase activity” (Communications Biology, 2021).
